Data: US9334289B2, “Cephem compound having catechol or pseudo-catechol structure” (SHIONOGI & CO., LTD., priority 2011, dated 2016)
Converted amounts (≈) assume the structure as drawn.

Assays:
Assay in all cases: MIC, CLSI broth microdilution, Test Example 2
Assay type in all cases: cell-based
[1] = test system: A. baumannii SR01331; details: Acinetobacter baumannii, SR01331; PER-1, OXA-23.51 ESBL- & OXA-type carbapenemase producing strain; cation-adjusted Iso-Sensitest broth containing human Apo-transferrin; 5×10^5 cfu/mL; read-out: Minimum Inhibitory Concentration (MIC) A. baumannii SR01331
Experimental: (§1) Measurement of Minimum Inhibitory Concentration (MIC: μg/mL) was conducted according to CLSI (Clinical and Laboratory Standards Institute) method, and the amount of bacteria for inoculation was 5×10^5 cfu/mL, and cation-adjusted Iso-Sensitest broth containing human Apo-transferrin was used as a test medium, and the experiment was conducted using broth microdilution method.

[2] = test system: E. coli ATCCBAA-196; details: Escherichia coli, ATCCBAA196; TEM-10 ESBL producing strain; cation-adjusted Iso-Sensitest broth containing human Apo-transferrin; 5×10^5 cfu/mL; read-out: Minimum Inhibitory Concentration (MIC) E. coli ATCC BAA-196
Experimental: as §1

[3] = test system: E. cloacae NCTC13464; details: Enterobacter cloacae, NCTC13464; CTX-M group 9 ESBL producing strain; cation-adjusted Iso-Sensitest broth containing human Apo-transferrin; 5×10^5 cfu/mL; read-out: Minimum Inhibitory Concentration (MIC) E. cloacae NCTC 13464
Experimental: as §1

[4] = test system: E. coli SR01337; details: Escherichia coli, SR01337; TEM-1 ESBL producing strain; cation-adjusted Iso-Sensitest broth containing human Apo-transferrin; 5×10^5 cfu/mL; read-out: Minimum Inhibitory Concentration (MIC) E. coli SR01337
Experimental: as §1

[5] = test system: P. aeruginosa SR01335; details: Pseudomonas aeruginosa, SR01335; VIM-1 like MBL producing strain (carbapenem resistance strain); cation-adjusted Iso-Sensitest broth containing human Apo-transferrin; 5×10^5 cfu/mL; read-out: Minimum Inhibitory Concentration (MIC) P. aeruginosa SR01335
Experimental: as §1

[6] = test system: P. aeruginosa SR01332; details: Pseudomonas aeruginosa, SR01332; VIM-11 MBL producing strain (carbapenem resistance strain); cation-adjusted Iso-Sensitest broth containing human Apo-transferrin; 5×10^5 cfu/mL; read-out: Minimum Inhibitory Concentration (MIC) P. aeruginosa SR01332
Experimental: as §1

[7] = test system: E. coli ATCCBAA-200; details: Escherichia coli, ATCCBAA200; SHV-4 ESBL producing strain; cation-adjusted Iso-Sensitest broth containing human Apo-transferrin; 5×10^5 cfu/mL; read-out: Minimum Inhibitory Concentration (MIC) E. coli ATCC BAA-200
Experimental: as §1

[8] = test system: K. pneumoniae ATCC700603; details: Klebsiella pneumoniae, ATCC700603; SHV18 ESBL producing strain; cation-adjusted Iso-Sensitest broth containing human Apo-transferrin; 5×10^5 cfu/mL; read-out: Minimum Inhibitory Concentration (MIC) K. pneumoniae ATCC 700603
Experimental: as §1

Structure (SMILES)	MIC [1] [µg/mL]	MIC [2] [µg/mL]	MIC [3] [µg/mL]	MIC [4] [µg/mL]	MIC [5] [µg/mL]	MIC [6] [µg/mL]	MIC [7] [µg/mL]	MIC [8] [µg/mL]
Nc1nc(/C(=N/O[C@@H](CC(=O)O)C(=O)[O-])C(=O)N[C@@H]2C(=O)N3C(c4nnn[nH]4)=C(C[N+]4(CCNC(=O)c5cc(O)c(O)c(F)c5)CCCC4)CS[C@H]23)c(Cl)s1 [Compound I-100]	0.25 (≈ 0.303 µM)	≤ 0.031	0.25 (≈ 0.303 µM)	≤ 0.031	2 (≈ 2.43 µM)	2 (≈ 2.43 µM)	0.063 (≈ 0.0764 µM)	0.125 (≈ 0.152 µM)
C[N+](C)(CCNC(=O)c1ccc(O)c(O)c1Cl)CC1=C(c2nnn[nH]2)N2C(=O)[C@@H](NC(=O)/C(=N\O[C@@H](CC(=O)O)C(=O)[O-])c3nc(N)sc3Cl)[C@H]2SC1 [Compound I-101]	0.25 (≈ 0.307 µM)	≤ 0.031	0.063 (≈ 0.0773 µM)	≤ 0.031	1 (≈ 1.23 µM)	2 (≈ 2.46 µM)	0.063 (≈ 0.0773 µM)	0.125 (≈ 0.153 µM)
Nc1nc(/C(=N/O[C@@H](CC(=O)O)C(=O)[O-])C(=O)N[C@@H]2C(=O)N3C(c4nnn[nH]4)=C(C[N+]4(CCNC(=O)c5ccc(O)c(O)c5F)CCCC4)CS[C@H]23)cs1 [Compound I-102]	0.25 (≈ 0.317 µM)	≤ 0.031	0.063 (≈ 0.0798 µM)	≤ 0.031	1 (≈ 1.27 µM)	4 (≈ 5.06 µM)	0.063 (≈ 0.0798 µM)	≤ 0.031
Nc1nc(/C(=N/O[C@@H](CC(=O)O)C(=O)[O-])C(=O)N[C@@H]2C(=O)N3C(c4nnn[nH]4)=C(C[N+]4(CCNC(=O)c5ccc(O)c(O)c5F)CCCC4)CS[C@H]23)c(Cl)s1 [Compound I-103]	0.25 (≈ 0.303 µM)	≤ 0.031	0.125 (≈ 0.152 µM)	≤ 0.031	1 (≈ 1.21 µM)	2 (≈ 2.43 µM)	0.125 (≈ 0.152 µM)	0.5 (≈ 0.607 µM)
CC(C)(O/N=C(\C(=O)N[C@@H]1C(=O)N2C(c3nnn[nH]3)=C(C[N@+]34CCC[C@H]3CN(C(=O)c3ccc(O)c(O)c3Cl)CC4)CS[C@H]12)c1nc(N)sc1Cl)C(=O)[O-] [Compound I-105]	2 (≈ 2.43 µM)	0.063 (≈ 0.0766 µM)	0.25 (≈ 0.304 µM)	≤ 0.031	2 (≈ 2.43 µM)	4 (≈ 4.86 µM)	0.25 (≈ 0.304 µM)	0.25 (≈ 0.304 µM)
CC(C)(O/N=C(\C(=O)N[C@@H]1C(=O)N2C(c3nnn[nH]3)=C(C[N+]3(CCNC(=O)c4ccc(O)c(O)c4F)CCCC3)CS[C@H]12)c1nc(N)sc1Cl)C(=O)[O-] [Compound I-106]	0.5 (≈ 0.63 µM)	≤ 0.031	0.063 (≈ 0.0793 µM)	≤ 0.031	1 (≈ 1.26 µM)	4 (≈ 5.04 µM)	0.063 (≈ 0.0793 µM)	≤ 0.031

Continued, values first:

MIC [1] [µg/mL]	MIC [2] [µg/mL]	MIC [3] [µg/mL]	MIC [4] [µg/mL]	MIC [5] [µg/mL]	MIC [6] [µg/mL]	MIC [7] [µg/mL]	MIC [8] [µg/mL]	Structure (SMILES)
0.5 (≈ 0.63 µM)	≤ 0.031	0.125 (≈ 0.157 µM)	≤ 0.031	2 (≈ 2.52 µM)	4 (≈ 5.04 µM)	0.063 (≈ 0.0793 µM)	0.125 (≈ 0.157 µM)	CC(C)(O/N=C(\C(=O)N[C@@H]1C(=O)N2C(c3nnn[nH]3)=C(C[N+]3(CCNC(=O)c4cc(O)c(O)c(F)c4)CCCC3)CS[C@H]12)c1nc(N)sc1Cl)C(=O)[O-] [Compound I-104]
0.5 (≈ 0.657 µM)	0.25 (≈ 0.329 µM)	0.063 (≈ 0.0828 µM)	0.063 (≈ 0.0828 µM)	2 (≈ 2.63 µM)	2 (≈ 2.63 µM)	0.5 (≈ 0.657 µM)	0.125 (≈ 0.164 µM)	CC(C)(O/N=C(\C(=O)N[C@@H]1C(=O)N2C(c3nnn[nH]3)=C(C[N+]3(CCNC(=O)c4ccc(O)c(O)c4F)CCCC3)CS[C@H]12)c1nsc(N)n1)C(=O)[O-] [Compound I-107]
1 (≈ 1.31 µM)	0.25 (≈ 0.329 µM)	0.125 (≈ 0.164 µM)	≤ 0.031	2 (≈ 2.63 µM)	2 (≈ 2.63 µM)	0.25 (≈ 0.329 µM)	0.25 (≈ 0.329 µM)	CC(C)(O/N=C(\C(=O)N[C@@H]1C(=O)N2C(c3nnn[nH]3)=C(C[N+]3(CCNC(=O)c4cc(O)c(O)c(F)c4)CCCC3)CS[C@H]12)c1nsc(N)n1)C(=O)[O-] [Compound I-108]
